Here are results for 3 molecules from US20090137580A1, “Fused Heterocyclic Derivatives and Use Thereof” (Takeda Pharmaceutical Company Limited, priority 2005, published 2009).

The subject of assay [1] is Human umbilical vein endothelial cells (HUVEC). The assay is described as follows: Vascular endothelial cell growth inhibitory test. It counts as cell-based. To be noted: Homo sapiens, 120 h, VEGF 120 ng/mL, culture 5 days, XTT reagent. The procedure:
Human umbilical vein endothelial cells (HUVEC, purchased from KURABO) were cultured in a gas incubator (37° C., CO2 5%) in a vascular endothelial cell medium (Invitrogen) containing 5% fetal calf serum and a basic fibroblast growth factor (2.5 ng/mL). To be specific, HUVEC suspended in the aforementioned vascular endothelial cell medium (Invitrogen) containing 5% fetal calf serum were seeded into a 96 well flat-bottom plate (50 μL, 3000 cells each well). After culturing overnight, various concentrations of test substance and the final concentration (120 ng/mL) of vascular endothelial growth factor (VEGF) were dissolved in a vascular endothelial cell medium (Invitrogen) containing 5% fetal calf serum and added to each well (50 μL). After culturing for 5 days, an XTT reagent (Wako Pure Chemical Industries, Ltd.) was added to each well (10 μL), and reacted in a gas incubator (37° C., CO2 5%) for 2-3 hr. The absorbance at 450 nm was measured by a microtiter plate reader, and the cell growth inhibitory activity was determined.
For orientation: Formazan colour is commonly taken as a measure of viable cells.

For assay [2], the target named is T1, VEGF Receptor 2 Kinase (VEGFR2) (Homo sapiens, UniProt P35968).
T1 construct: made in house; host or cells: SF-21 insect cells, recombinant baculovirus BAC-VEGFR2 (pFASTBAC1)
T1 sequence (P35968 786-1356 limits assumed): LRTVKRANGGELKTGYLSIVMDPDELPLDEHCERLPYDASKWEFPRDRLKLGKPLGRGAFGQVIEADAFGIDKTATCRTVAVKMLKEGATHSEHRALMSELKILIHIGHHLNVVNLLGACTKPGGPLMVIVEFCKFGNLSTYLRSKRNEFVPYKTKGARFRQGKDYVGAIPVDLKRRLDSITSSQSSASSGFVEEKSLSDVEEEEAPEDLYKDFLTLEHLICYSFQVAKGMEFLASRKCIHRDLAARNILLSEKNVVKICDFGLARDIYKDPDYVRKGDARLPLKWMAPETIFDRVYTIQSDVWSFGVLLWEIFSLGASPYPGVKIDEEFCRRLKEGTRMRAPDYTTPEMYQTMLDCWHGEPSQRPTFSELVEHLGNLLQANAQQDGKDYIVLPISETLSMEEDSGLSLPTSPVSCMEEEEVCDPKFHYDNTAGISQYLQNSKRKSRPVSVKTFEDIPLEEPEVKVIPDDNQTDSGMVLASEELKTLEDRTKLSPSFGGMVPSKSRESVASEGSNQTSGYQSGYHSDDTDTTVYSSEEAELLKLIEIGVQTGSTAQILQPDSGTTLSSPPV
The assay is described as follows: Determination of VEGF receptor 2 kinase (VEGFR2) inhibitory activity (alpha screen). To be noted: VEGFR2 intracellular domain protein, 25 μM ATP buffer, read-out: inhibitory rate (kinase inhibitory rate of VEGFR2). Type of assay: biochemical. The method, then: For cloning of human VEGF receptor 2 (hereinafter to be abbreviated as VEGFR2) gene, PCR was performed using cDNA Libraries Human Placenta (Clontech) as a template. The primer used for PCR was prepared by, based on the information of the base sequence (Genbank Accession AF035121) of VEGFR2 gene, adding a base sequence encoding the flag peptide and a restriction enzyme recognition sequence to the base sequence (2671-4374 of Genbank Accession AF035121) encoding the VEGFR2 intracellular domain, so that a flag tag would be added to the N terminal of the protein. The primer base sequence is shown in the following.
PCR reaction was carried out using a KOD-plus kit (TOYOBO). The obtained PCR product was electrophoresed on an agarose gel (1%), and a DNA fragment amplified by PCR was recovered from the gel and digested with restriction enzymes Sal I and Sph I. The DNA after the restriction enzyme treatment was electrophoresed on an agarose gel (1%), and the obtained DNA fragment was recovered and ligated to the plasmid pFASTBAC1 (Invitrogen) digested with restriction enzymes Sal I and Sph I to give an expression plasmid pFB-VEGFR2. The base sequence of the inserted fragment was confirmed to have matched with the base sequence (2671-4374 of Genbank Accession AF035121) of the VEGFR2 intracellular domain. Furthermore, virus stock BAC-VEGFR2 of the recombinant Baculovirus was prepared using BAC-TO-BAC Baculovirus Expression System (Invitrogen).
SF-21 cells were inoculated into 1 L of Sf-900IISFM medium (Invitrogen) containing 10% fetal calf serum (trace), 50 mg/L Gentamicin (Invitrogen) and 0.1% Pluronic F-68 (Invitrogen) at 1×10^6 cells/ml, and shake culture was performed using a 2 L Erlenmeyer flask at 27° C., 100 rpm. After 24 hr of culture, recombinant Baculovirus BAC-VEGFR2 (13.4 mL) was added, and the culture was continued for 3 days. The culture medium was centrifuged at 2,000 rpm for 5 min to give virus-infected cells. The infected cells were washed with phosphate buffered saline (Invitrogen), centrifuged under the same conditions, and preserved at −80° C. The cryopreserved cells were thawed in ice, suspended in 30 mL of buffer A (Tris buffer, pH 7.4, containing 20% glycerol and 0.15M NaCl (50 mM)) supplemented with Complete Protease Inhibitor (Boehringer), and disrupted three times using a polytron homogenizer (Kinematica) at 20,000 rpm, 30 sec. The disrupt was clarified by centrifugation at 40,000 rpm, 30 min and filtered through a 0.45 μm filter. The filtrate was passed through a column packed with Anti-FLAG M2 Affinity Gel (Sigma Ltd., 4 mL) at a flow rate of about 0.5 mL/min. The column was washed with buffer A and eluted with buffer A containing 100 μg/mL FLAG peptide. The eluate was concentrated by Vivaspin 20 (Viva Science) having a fraction molecular weight of 30K. The concentrate was applied to NAP™ 25 column (Amersham Biosciences) equilibrated with buffer A for buffer exchange. The fractions containing the VEGFR2 intracellular domain protein were collected, glycerol was added to the final concentration of 50% and the fractions cryopreserved at ˜80° C.
The test compound dissolved in dimethyl sulfoxide (DMSO) was diluted with a buffer (50 mM Tris-HCl, pH 7.5, 5 mM MgCl2, 5 mM MnCl2, 2 mM dithiothreitol, 0.01% Tween-20). A buffer (10 μl) containing 50 ng/ml VEGFR2 intracellular domain protein and 250 ng/ml biotin-labeled polypeptide biotinyl-poly-Glu:Tyr (4:1) (CIS Bio International) was added to the compound solution (5 μl). A buffer (10 μl) containing 25 μM ATP was added to the obtained mixture, the mixture was allowed to react at 25° C. for 5 min. Then, 25 μl of a stop solution (100 mM EDTA·2 sodium salt, 62.5 mM HEPES buffer (pH 7.4), 250 mM NaCl, 0.1% bovine serum albumin, 10 μg/ml Streptavidin Donor beads: PerkinElmer for alpha screen assay, 10 μg/ml Anti-phosphotyrosine (P-Tyr-100) Acceptor beads: PerkinElmer for alpha screen assay) was added to quench the reaction. […]

The target of assay [3] is T2, PDGFRbeta Receptor Kinase (PDGFRbeta) (Homo sapiens, UniProt P09619).
T2 construct: PDGFRbeta intracellular domain protein (UPSTATE); purchased UPSTATE
T2 sequence (P09619 554-1106 limits assumed): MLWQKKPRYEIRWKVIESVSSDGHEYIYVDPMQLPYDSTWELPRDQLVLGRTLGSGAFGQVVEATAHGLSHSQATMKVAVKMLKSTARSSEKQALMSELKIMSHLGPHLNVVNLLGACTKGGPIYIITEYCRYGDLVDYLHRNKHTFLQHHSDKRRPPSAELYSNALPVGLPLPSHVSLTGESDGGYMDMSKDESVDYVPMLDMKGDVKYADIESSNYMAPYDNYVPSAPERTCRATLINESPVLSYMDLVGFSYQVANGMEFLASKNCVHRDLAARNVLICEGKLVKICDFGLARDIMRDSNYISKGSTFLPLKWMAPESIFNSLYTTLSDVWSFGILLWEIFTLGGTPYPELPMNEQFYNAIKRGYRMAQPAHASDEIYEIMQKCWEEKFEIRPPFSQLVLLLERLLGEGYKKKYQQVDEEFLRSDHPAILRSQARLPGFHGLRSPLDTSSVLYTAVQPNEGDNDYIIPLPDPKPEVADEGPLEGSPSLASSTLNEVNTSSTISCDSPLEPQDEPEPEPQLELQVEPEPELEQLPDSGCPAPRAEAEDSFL
Kind of assay: Determination of PDGFRbeta receptor kinase (PDGFRbeta) inhibitory activity (alpha screen). Type of assay: biochemical. To be noted: PDGFRbeta intracellular domain protein, 25 μM ATP buffer; read-out: IC50 value (PDGFRbeta kinase inhibition). The procedure: (§1) The test compound dissolved in dimethyl sulfoxide (DMSO) was diluted with a buffer (50 mM Tris-HCl, pH 7.5, 5 mM MgCl2, 5 mM MnCl2, 2 mM dithiothreitol, 0.01% Tween-20). A buffer (10 μl) containing 125 ng/ml PDGFRbeta intracellular domain protein (UPSTATE) and 250 ng/ml biotin-labeled polypeptide biotinyl-poly-Glu:Tyr (4:1) (CIS Bio International) was added to the compound solution (5 μl). At 5 min after mixing a kinase enzyme, the compound and a biotin-labeled polypeptide, a buffer (10 μl) containing 25 μM ATP was added to the obtained mixture, the mixture was allowed to react at 25° C. for 30 min. Then, 25 μl of a stop solution (100 mM EDTA·2 sodium salt, 62.5 mM HEPES buffer (pH 7.4), 250 mM NaCl, 0.1% bovine serum albumin, 10 μg/ml Streptavidin Donor beads: PerkinElmer for alpha screen assay, 10 μg/ml Anti-phosphotyrosine (P-Tyr-66) Acceptor beads: PerkinElmer for alpha screen assay) was added to quench the reaction. The reaction solution was stood at 25° C. for 16 hr, and the count was measured using a plate reader·Fusion™ (manufactured by PerkinElmer). The kinase inhibitory rate (%) of the test compound was calculated by the following formula.
(§2) Inhibitory rate(%)=(1−(count of test compound−blank)÷(control−blank))×100
(§3) wherein the count of the solution reacted without addition of the compound is “control” and the count of the solution without addition of the compound and ATP is “blank”.

Assay [4] addresses T3, PDGFR Alpha Receptor Kinase (PDGFRalpha) (Homo sapiens, UniProt P16234).
T3 construct: PDGFRalpha intracellular domain protein (UPSTATE); purchased UPSTATE
Kind of assay: Determination of PDGFR alpha receptor kinase (PDGFRalpha) inhibitory activity (alpha screen). To be noted: PDGFRalpha intracellular domain protein, 25 μM ATP buffer; read-out: IC50 value (PDGFRalpha kinase inhibition). It counts as biochemical. The method, then:
The test compound dissolved in dimethyl sulfoxide (DMSO) was diluted with a buffer (50 mM Tris-HCl, pH 7.5, 5 mM MgCl2, 5 mM MnCl2, 2 mM dithiothreitol, 0.01% Tween-20).
Acceptor beads: PerkinElmer for alpha screen assay) was added to quench the reaction. The reaction solution was stood at 25° C. for 16 hr, and the count was measured using a plate reader·Fusion™ (manufactured by PerkinElmer). The kinase inhibitory rate (%) of the test compound was calculated by the following formula.
as §2, §3

Assay [5] has as its target T4, TIE2 Receptor Kinase (TIE2) (Homo sapiens, UniProt Q02763).
T4 construct: TIE2 intracellular domain protein (UPSTATE); purchased UPSTATE
The assay is described as follows: Determination of TIE2 receptor kinase (TIE2) inhibitory activity (alpha screen). It counts as biochemical. To be noted: TIE2 intracellular domain protein, 5 μM ATP buffer; read-out: IC50 value (TIE2 kinase inhibition). The procedure:
as §1, with “containing 50” for “containing 125”, “ng/ml TIE2” for “ng/ml PDGFRbeta”, “containing 5” for “containing 25”, “for 10” for “for 30”
as §2, §3
Prism (Graphpad Software) according to the nonlinear-regression sigmoidal dose-response (variable slope) analysis method.

Each structure is given as a SMILES string.

T3 sequence (P16234 550-1089 limits assumed): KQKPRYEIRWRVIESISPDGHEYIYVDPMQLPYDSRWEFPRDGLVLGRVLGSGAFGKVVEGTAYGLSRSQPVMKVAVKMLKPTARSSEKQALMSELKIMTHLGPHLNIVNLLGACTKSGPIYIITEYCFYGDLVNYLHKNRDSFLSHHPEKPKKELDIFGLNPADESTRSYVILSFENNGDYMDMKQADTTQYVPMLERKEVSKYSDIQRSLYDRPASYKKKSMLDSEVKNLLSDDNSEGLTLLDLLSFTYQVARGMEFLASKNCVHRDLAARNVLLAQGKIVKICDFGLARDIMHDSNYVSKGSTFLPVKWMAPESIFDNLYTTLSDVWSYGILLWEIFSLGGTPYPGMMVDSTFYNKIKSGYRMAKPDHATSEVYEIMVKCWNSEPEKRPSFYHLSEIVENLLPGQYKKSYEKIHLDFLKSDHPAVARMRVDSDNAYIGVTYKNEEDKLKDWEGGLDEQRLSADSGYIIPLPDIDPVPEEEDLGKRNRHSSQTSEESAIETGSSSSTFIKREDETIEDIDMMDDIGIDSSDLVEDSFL
T4 sequence (Q02763 770-1124 limits assumed): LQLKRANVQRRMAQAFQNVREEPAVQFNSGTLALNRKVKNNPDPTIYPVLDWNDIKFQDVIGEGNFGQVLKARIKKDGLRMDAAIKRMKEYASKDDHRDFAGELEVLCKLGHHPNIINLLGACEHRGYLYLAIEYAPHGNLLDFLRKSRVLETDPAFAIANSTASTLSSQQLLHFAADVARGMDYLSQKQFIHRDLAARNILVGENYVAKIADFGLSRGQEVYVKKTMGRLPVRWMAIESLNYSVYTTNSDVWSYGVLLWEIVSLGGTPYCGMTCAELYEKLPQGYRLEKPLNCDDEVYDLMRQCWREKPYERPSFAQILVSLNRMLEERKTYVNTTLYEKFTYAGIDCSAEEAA

One may read the IC50 as the concentration at which inhibition is half-maximal. `Cn1ccc2ncnc(Oc3ccc(NC(=O)Nc4cccc(Cl)c4)cc3)c21` [Example 4, N-(3-chlorophenyl)-N′-{4-[(5-methyl-5H-pyrrolo[3,2-d]pyrimidin-4-yl)oxy]phenyl}urea]: the IC50 in assay [1] was 91 nM; in assay [3], at most 500 nM; in assay [4] it was at most 500 nM. Further, the inhibition at 1 µM in assay [2] was at least 90%.
Regarding `Cc1cccc(NC(=O)Nc2ccc(Oc3ncnc4ccn(C)c34)cc2)c1` [Example 18, N-(3-methylphenyl)-N′-{4-[(5-methyl-5H-pyrrolo[3,2-d]pyrimidin-4-yl)oxy]phenyl}urea], the values for the IC50 in assay [1], in assay [3] and in assay [4] were 53 nM, at most 500 nM and at most 500 nM, respectively. Moreover, the inhibition at 1 µM in assay [2] is at least 90%.
Regarding `COc1cc(Oc2ncnc3ccn(C)c23)ccc1NC(=O)Nc1cccc(C(F)(F)F)c1` [Example 77, N-{2-methoxy-4-[(5-methyl-5H-pyrrolo[3,2-d]pyrimidin-4-yl)oxy]phenyl}-N′-[3-(trifluoromethyl)phenyl]urea], the IC50 in assay [5] is at most 5 nM; in assay [3] it was at most 500 nM; in assay [4] it was at most 500 nM. For the same molecule, the inhibition at 1 µM in assay [2] was at least 90%.
